From BindingDB's records for doi:10.1080/14756360701536455 (Pcsir Laboratories Complex, 2008)

Legend:
[1] = target: Carboxylic ester hydrolase (Equus caballus, UniProt Q9N1N9); assay: Cholinesterase Inhibition Assay; conditions: pH 8; 25 °C
Experimental: Butyrylcholinesterase activity-inhibiting activities were measured by a slightly modified spectrophotometric method developed by Ellman. DTNB was used for the measurement of cholinesterase activity and butyrylthiocholine chloride was used as a substrate.

[2] = target: T1, Seed linoleate 13S-lipoxygenase-1 (Glycine max, UniProt P08170); assay: Lipoxygenase Inhibition Assay; conditions: pH 8; 25 °C
T1 sequence (P08170 whole entry): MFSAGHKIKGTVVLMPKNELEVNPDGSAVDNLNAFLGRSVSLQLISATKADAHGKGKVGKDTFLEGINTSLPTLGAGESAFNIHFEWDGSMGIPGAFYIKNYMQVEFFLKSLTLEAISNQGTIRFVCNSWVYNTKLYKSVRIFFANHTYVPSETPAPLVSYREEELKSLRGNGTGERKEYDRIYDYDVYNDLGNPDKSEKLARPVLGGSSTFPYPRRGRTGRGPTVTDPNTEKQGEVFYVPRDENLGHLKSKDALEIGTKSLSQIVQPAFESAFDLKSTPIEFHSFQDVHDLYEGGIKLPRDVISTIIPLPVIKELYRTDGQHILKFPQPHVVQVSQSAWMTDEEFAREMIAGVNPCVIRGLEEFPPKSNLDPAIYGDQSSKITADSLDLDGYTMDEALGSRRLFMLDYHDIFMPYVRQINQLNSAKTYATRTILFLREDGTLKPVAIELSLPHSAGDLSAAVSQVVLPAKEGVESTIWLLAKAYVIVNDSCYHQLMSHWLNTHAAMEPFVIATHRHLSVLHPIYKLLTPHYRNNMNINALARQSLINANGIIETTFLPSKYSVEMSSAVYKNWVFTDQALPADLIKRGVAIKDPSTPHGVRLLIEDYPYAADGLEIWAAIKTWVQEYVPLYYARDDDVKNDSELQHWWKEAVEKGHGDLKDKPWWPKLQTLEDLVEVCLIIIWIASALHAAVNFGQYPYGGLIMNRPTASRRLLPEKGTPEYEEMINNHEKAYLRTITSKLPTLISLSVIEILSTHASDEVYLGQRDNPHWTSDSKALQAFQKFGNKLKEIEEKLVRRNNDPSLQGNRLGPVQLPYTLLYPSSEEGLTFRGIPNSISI
Experimental: LOX inhibiting activity was measured by modifying the spectrophotometric method developed by Tappel.

Carboxylic ester hydrolase, sequence (Q9N1N9 whole entry): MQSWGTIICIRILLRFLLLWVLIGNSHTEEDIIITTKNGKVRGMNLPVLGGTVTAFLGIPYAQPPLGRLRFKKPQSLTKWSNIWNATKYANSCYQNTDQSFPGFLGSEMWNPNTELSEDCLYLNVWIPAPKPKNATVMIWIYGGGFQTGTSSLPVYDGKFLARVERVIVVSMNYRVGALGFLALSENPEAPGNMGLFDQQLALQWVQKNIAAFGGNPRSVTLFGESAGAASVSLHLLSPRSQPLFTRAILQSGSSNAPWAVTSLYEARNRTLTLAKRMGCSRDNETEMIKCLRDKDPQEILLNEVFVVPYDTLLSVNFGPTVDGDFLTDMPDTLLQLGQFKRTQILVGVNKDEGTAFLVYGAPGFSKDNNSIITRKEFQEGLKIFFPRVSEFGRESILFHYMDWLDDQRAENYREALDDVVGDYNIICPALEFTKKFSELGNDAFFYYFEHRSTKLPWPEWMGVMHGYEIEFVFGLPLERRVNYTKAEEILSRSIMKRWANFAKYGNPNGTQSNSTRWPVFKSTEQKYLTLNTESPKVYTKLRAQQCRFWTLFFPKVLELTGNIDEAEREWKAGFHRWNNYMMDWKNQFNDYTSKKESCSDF

SMILES | IC50 [1] | IC50 [2]
N#CC(=C1Nc2ccccc2C1=O)c1c[nH]c2ccccc12 [2-[Cyano(3-indolyl)methylene]-3-indolone, 1] | 23.5 µM | 39.1 µM
C=CC(CC(=NOS(=O)(=O)O)SC1OC(CO)C(O)C(O)C1O)OC(=O)CC1(O)C(=O)Nc2ccccc21 (stereo not drawn) [3'-Hydroxyepiglucoisatisin, 3] | 16.3 µM | 30.6 µM
C=CC(CC(=NOS(=O)(=O)O)SC1OC(CO)C(O)C(O)C1O)OC(=O)CC1C(=O)Nc2ccccc21 (stereo not drawn) [Epiglucoisatisin, 2] | 19.7 µM | 33.7 µM
COc1ccc2c3c1O[C@H]1C[C@@H](O)C=C(CN(C)C2)[C@H]31 [Galanthamine, 7] | 8.5 µM | 
O=C(O)CC(=O)OCC1OC(Oc2c[nH]c3ccccc23)C(O)C(=O)C1O (stereo not drawn) [Isatan A, 5] | 43.4 µM | 49.3 µM
O=C1C(O)C(CO)OC(Oc2c[nH]c3ccccc23)C1O (stereo not drawn) [Isatan B, 6] | 47.6 µM | 53.8 µM
O=S(=O)(O)ON=C(Cc1cc2ccccc2n1S(=O)(=O)O)SC1OC(CO)C(O)C(O)C1O (stereo not drawn) [Sulfoglucobrassicin, 4] | 24.8 µM | 41.9 µM
